Patent publication US7531482B2, “Thieno-pyrimidine compounds having fungicidal activity” (Dow AgroSciences LLC, priority 2005, dated 2009)

Assays:
Assay type in all cases: in vivo
[1] = system: Mycosphaerella graminicola=Septoria tritici; assay: Speckled Leaf Blotch of Wheat (SEPTTR) whole-plant disease control test; conditions: 75 ppm applied to foliage of wheat; for pest or weed control at 75 ppm: Mycosphaerella, foliar, read-out: SEPTTR disease control
[2] = system: Leptosphaeria nodorum; assay: Glume Blotch of Wheat (LEPTNO) whole-plant disease control test; conditions: for pest or weed control at 200 ppm: read-out: LEPTNO disease control
[3] = system: Puccinia recondita tritici; assay: Leaf Rust of Wheat (PUCCRT) whole-plant disease control test; conditions: 200 ppm applied to foliage of wheat, inoculated one day after treatment; for pest or weed control at 200 ppm: Puccinia recondita, foliar, read-out: PUCCRT disease control
[4] = system: Colletotricum lagenarium; assay: Cucumber Anthracnose (COLLLA) whole-plant disease control test; conditions: 200 ppm applied to foliage of cucumber, inoculated one day after treatment; for pest or weed control at 200 ppm: Cucumis sativus, foliar, read-out: COLLLA disease control
[5] = system: Magnaporthe grisea=Pyricularia oryzae; assay: whole plant or invertebrate; conditions: for pest or weed control at 200 ppm: read-out: PYRIOR disease control, 200 ppm applied to foliage of rice
[6] = system: Erysiphe cichoracaerum; assay: Cucumber Powdery Mildew (ERYSCI) whole-plant disease control test; conditions: 200 ppm applied to foliage of cucumber, inoculated one day after treatment; for pest or weed control at 200 ppm: Erysiphe, foliar, read-out: ERYSCI disease control
[7] = system: Phytophthora infestans; assay: whole plant or invertebrate; conditions: inoculated one day after treatment; for pest or weed control at 200 ppm: Phytophthora infestans, in Solanum lycopersicum, foliar, read-out: PHYTIN disease control, 200 ppm applied to foliage of tomato
[8] = Parastagonospora nodorum, foliar, 200 ppm applied to foliage of wheat, inoculated one day after treatment
[9] = Pyricularia oryzae, foliar, inoculated one day after treatment

Row | Structure (SMILES) | pest or weed control at 75 ppm [1] | pest or weed control at 200 ppm [2, 8] | pest or weed control at 200 ppm [3] | pest or weed control at 200 ppm [4] | pest or weed control at 200 ppm [5, 9] | pest or weed control at 200 ppm [6] | pest or weed control at 200 ppm [7] | pest or weed control at 75 ppm ([2]; Parastagonospora nodorum, foliar, 75 ppm (footnote b), wheat foliage) | pest or weed control at 8.3 ppm ([5]; Pyricularia oryzae, foliar, read-out: PYRIOR disease control, 8.3 ppm (footnote c), rice foliage) | SEPTTR disease control [1] | LEPTNO disease control ([2]; 200 ppm applied to foliage of wheat, inoculated one day after treatment) | PUCCRT disease control [3] | COLLLA disease control [4] | PYRIOR disease control ([5]; 200 ppm applied to foliage of rice, inoculated one day after treatment) | ERYSCI disease control [6] | PHYTIN disease control ([7]; 200 ppm applied to foliage of tomato)
1 | Clc1nccc(Oc2ccc(CCNc3ncnc4scc(Cl)c34)cc2)n1 [Compound 45] | 50 to 79% | 0 to 49% | 80 to 100% | 0 to 49% | 50 to 79% | 0 to 49% | 0 to 49% | – | – | – | – | – | – | – | – | –
2 | FC(F)(F)c1ccc(COc2ccc(CCNc3ncnc4scc(Cl)c34)cc2)o1 [Compound 105] | 0 to 49% | 0 to 49% | 50 to 79% | 0 to 49% | 80 to 100% | 0 to 49% | 0 to 49% | – | – | – | – | – | – | – | – | –
3 | Clc1csc2ncnc(NCCc3ccc(Oc4nc(Br)ns4)cc3)c12 [Compound 112] | 0 to 49% | 0 to 49% | 80 to 100% | 50 to 79% | 80 to 100% | 0 to 49% | 50 to 79% | – | – | – | – | – | – | – | – | –
4 | FC(F)(F)c1ccnc(Oc2ccc(CCNc3ncnc4scc(Cl)c34)cc2)n1 [Compound 27] | 50 to 79% | 0 to 49% | 80 to 100% | 50 to 79% | 80 to 100% | 80 to 100% | 50 to 79% | – | – | – | – | – | – | – | – | –
5 | Clc1csc2ncnc(NCCc3ccc(Oc4ccccn4)cc3)c12 [Compound 18] | 50 to 79% | 0 to 49% | 80 to 100% | 0 to 49% | 80 to 100% | 80 to 100% | 80 to 100% | – | – | – | – | – | – | – | – | –
6 | Brc1csc2ncnc(NCCc3ccc(Oc4ncnc5scc(Br)c45)cc3)c12 [Compound 57] | 0 to 49% | 0 to 49% | 80 to 100% | 50 to 79% | 80 to 100% | 0 to 49% | 0 to 49% | – | – | – | – | – | – | – | – | –
7 | CCOC(=O)c1cccc(Oc2ccc(CCNc3ncnc4scc(Cl)c34)cc2)n1 [Compound 80] | 0 to 49% | 0 to 49% | 80 to 100% | 0 to 49% | 80 to 100% | 0 to 49% | 80 to 100% | – | – | – | – | – | – | – | – | –
8 | Clc1csc2ncnc(NCCc3ccc(Oc4cnccn4)cc3)c12 [Compound 38] | 50 to 79% | 0 to 49% | 80 to 100% | 50 to 79% | 50 to 79% | 50 to 79% | 50 to 79% | – | – | – | – | – | – | – | – | –
9 | N#Cc1ccnc(Oc2ccc(CCNc3ncnc4scc(Cl)c34)cc2)c1 [Compound 13] | 50 to 79% | 80 to 100% | 80 to 100% | 50 to 79% | 80 to 100% | 80 to 100% | 50 to 79% | – | – | – | – | – | – | – | – | –
10 | Clc1csc2ncnc(NCCc3ccc(Oc4cc(I)ccn4)cc3)c12 [Compound 43] | 80 to 100% | 80 to 100% | 80 to 100% | 50 to 79% | 80 to 100% | 80 to 100% | 0 to 49% | – | – | – | – | – | – | – | – | –
11 | FC(F)(F)c1ccnc(Oc2ccc(CCNc3ncnc4scc(Cl)c34)cc2)c1 [Compound 12] | 50 to 79% | 80 to 100% | 80 to 100% | 50 to 79% | 80 to 100% | 80 to 100% | 50 to 79% | – | – | – | – | – | – | – | – | –
12 | CC(C)(C)OC(=O)c1ccc(Oc2ccc(CCNc3ncnc4scc(Cl)c34)cc2)cc1 [Compound 6] | 50 to 79% | 0 to 49% | 80 to 100% | 50 to 79% | 80 to 100% | 80 to 100% | 50 to 79% | – | – | – | – | – | – | – | – | –
13 | Clc1cc(Br)cnc1Oc1ccc(CCNc2ncnc3scc(Cl)c23)cc1 [Compound 51] | 50 to 79% | 0 to 49% | 80 to 100% | 0 to 49% | 80 to 100% | 0 to 49% | 0 to 49% | – | – | – | – | – | – | – | – | –
14 | COC(=O)c1cccc(Oc2ccc(CCNc3ncnc4scc(Cl)c34)cc2)n1 [Compound 79] | 0 to 49% | 0 to 49% | 80 to 100% | 0 to 49% | 80 to 100% | 0 to 49% | 80 to 100% | – | – | – | – | – | – | – | – | –
15 | COc1cc(C(F)(F)F)cc(Oc2ccc(CCNc3ncnc4scc(Cl)c34)cc2)n1 [Compound 63] | 50 to 79% | 0 to 49% | 80 to 100% | 50 to 79% | 80 to 100% | 80 to 100% | 50 to 79% | – | – | – | – | – | – | – | – | –
16 | Cc1cc(Oc2ccc(CCNc3ncnc4scc(Cl)c34)cc2)cnc1S(C)(=O)=O [Compound 50] | 50 to 79% | 50 to 79% | 80 to 100% | 50 to 79% | 80 to 100% | 0 to 49% | 80 to 100% | – | – | – | – | – | – | – | – | –
17 | N#Cc1ncc(Oc2ccc(CCNc3ncnc4scc(Cl)c34)cc2)cc1F [Compound 30] | 50 to 79% | 0 to 49% | 80 to 100% | 80 to 100% | 80 to 100% | 50 to 79% | 50 to 79% | – | – | – | – | – | – | – | – | –
18 | N#Cc1ccnc(Oc2ccc(CCNc3ncnc4scc(Cl)c34)cc2)n1 [Compound 41] | 0 to 49% | 0 to 49% | 80 to 100% | 0 to 49% | 80 to 100% | 50 to 79% | 80 to 100% | – | – | – | – | – | – | – | – | –
19 | N#Cc1cccnc1Oc1ccc(CCNc2ncnc3scc(Cl)c23)cc1 [Compound 28] | 50 to 79% | 50 to 79% | 80 to 100% | 50 to 79% | 50 to 79% | 0 to 49% | 0 to 49% | – | – | – | – | – | – | – | – | –
20 | Clc1csc2ncnc(NCCc3ccc(Oc4cccc(-n5cccn5)n4)cc3)c12 [Compound 89] | 50 to 79% | 80 to 100% | 80 to 100% | 0 to 49% | 80 to 100% | 80 to 100% | 0 to 49% | – | – | – | – | – | – | – | – | –
21 | N#Cc1nc(Oc2ccc(CCNc3ncnc4scc(Cl)c34)cc2)ccc1Cl [Compound 59] | 0 to 49% | 0 to 49% | 80 to 100% | 80 to 100% | 80 to 100% | 50 to 79% | 0 to 49% | – | – | – | – | – | – | – | – | –
22 | N#Cc1ncc(F)cc1Oc1ccc(CCNc2ncnc3scc(Cl)c23)cc1 [Compound 29] | 50 to 79% | 0 to 49% | 80 to 100% | 50 to 79% | 50 to 79% | 0 to 49% | 0 to 49% | – | – | – | – | – | – | – | – | –
23 | Clc1nsc(Oc2ccc(CCNc3ncnc4scc(Cl)c34)cc2)n1 [Compound 120] | 0 to 49% | – | 80 to 100% | 0 to 49% | – | 0 to 49% | 50 to 79% | 0 to 49% | 50 to 79% | – | – | – | – | – | – | –
24 | Clc1csc2ncnc(NCCc3ccc(Oc4ncnc5scc(Cl)c45)cc3)c12 [Compound 68] | – | – | – | – | – | – | – | – | – | * (* = 0–49 percent control) | * (* = 0–49 percent control) | *** (*** = 80–100 percent control) | * (* = 0–49 percent control) | *** (*** = 80–100 percent control) | * (* = 0–49 percent control) | ** (** = 50–79 percent control)
25 | [O-][n+]1ccccc1Oc1ccc(CCNc2ncnc3scc(Cl)c23)cc1 [Compound 19] | 50 to 79% | 0 to 49% | 80 to 100% | 0 to 49% | 80 to 100% | 50 to 79% | 80 to 100% | – | – | – | – | – | – | – | – | –
26 | FC(F)(F)c1cc(Oc2ccc(CCNc3ncnc4scc(Cl)c34)cc2)cc(C(F)(F)F)n1 [Compound 75] | 50 to 79% | 80 to 100% | 80 to 100% | 80 to 100% | 80 to 100% | 80 to 100% | 0 to 49% | – | – | – | – | – | – | – | – | –
